Where “and” joins values, the source holds several entries; their conditions need not be identical. Equal entries are not always repeated. Calls of active or inactive are those of the source.
Experiments:
[1] = target: T1, Ubiquitin-conjugating enzyme E2 N (Homo sapiens, UniProt P61088); assay type: functional;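 also: Dose-response confirmation in a TR-FRET assay detecting UBC13-driven polyubiquitin chain formation, inhibition measured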
T1 sequence (P61088 whole entry): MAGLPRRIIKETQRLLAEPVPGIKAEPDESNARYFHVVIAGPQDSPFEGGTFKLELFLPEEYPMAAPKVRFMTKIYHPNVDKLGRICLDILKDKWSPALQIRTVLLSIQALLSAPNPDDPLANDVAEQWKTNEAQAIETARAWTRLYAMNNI

[2] = target: T2, Short transient receptor potential channel 4 (Mus musculus, UniProt Q9QUQ5); assay: block of DAMGO-driven TRPC4 calcium entry – cell-based, HEK293 TRPC4/mu-opioid, Fluo-4 calcium, dose response (AID 434942); assay type: functional;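 also: potency of inhibitors blocking the TRPC4 calcium response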
T2 sequence (Q9QUQ5 whole entry): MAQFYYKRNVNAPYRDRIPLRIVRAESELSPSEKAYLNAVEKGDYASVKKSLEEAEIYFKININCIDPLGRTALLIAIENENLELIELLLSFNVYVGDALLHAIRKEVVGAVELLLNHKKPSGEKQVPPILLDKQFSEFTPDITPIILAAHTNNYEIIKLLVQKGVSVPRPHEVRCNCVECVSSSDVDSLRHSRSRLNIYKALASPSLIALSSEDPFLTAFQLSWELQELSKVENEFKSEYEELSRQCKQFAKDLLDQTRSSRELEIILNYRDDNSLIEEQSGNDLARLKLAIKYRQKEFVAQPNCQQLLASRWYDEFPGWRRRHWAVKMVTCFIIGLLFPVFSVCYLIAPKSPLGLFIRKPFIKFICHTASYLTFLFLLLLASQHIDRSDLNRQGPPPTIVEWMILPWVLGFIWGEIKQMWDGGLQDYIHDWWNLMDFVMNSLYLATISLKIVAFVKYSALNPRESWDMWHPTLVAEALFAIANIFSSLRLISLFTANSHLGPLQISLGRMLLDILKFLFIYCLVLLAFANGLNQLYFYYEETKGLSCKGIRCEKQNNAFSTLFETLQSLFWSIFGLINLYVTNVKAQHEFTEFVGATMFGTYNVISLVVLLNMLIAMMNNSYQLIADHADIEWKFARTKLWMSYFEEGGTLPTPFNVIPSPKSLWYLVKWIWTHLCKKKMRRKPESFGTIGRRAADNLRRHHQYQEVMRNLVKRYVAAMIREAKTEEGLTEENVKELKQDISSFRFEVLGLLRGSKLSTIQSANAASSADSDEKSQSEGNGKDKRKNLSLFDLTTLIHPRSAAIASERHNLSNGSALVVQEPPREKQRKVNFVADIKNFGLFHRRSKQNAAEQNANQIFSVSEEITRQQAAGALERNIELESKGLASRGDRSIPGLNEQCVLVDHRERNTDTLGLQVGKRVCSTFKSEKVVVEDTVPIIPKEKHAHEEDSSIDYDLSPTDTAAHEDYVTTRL

[3] = target: FAD-linked sulfhydryl oxidase ALR (Homo sapiens, UniProt P55789); assay: ALR-catalysed DTT oxidation blockers – biochemical, H2O2 detection, luminescence, cherry-pick, dose response (AID 493248)
[4] = target: DNA dC->dU-editing enzyme APOBEC-3A (Homo sapiens, UniProt P31941); assay: Dose Response confirmation of small molecule APOBEC3A DNA Deaminase Inhibitors via a fluorescence-based single-stranded DNA deaminase assay. [Related pubchem assays (depositor defined):AID493011, AID493024]; assay type: functional
[5] = target: T3, Carboxy-terminal domain RNA polymerase II polypeptide A small phosphatase 1 (Homo sapiens, UniProt Q9GZU7); assay: CTDSP1 inhibitors, concentration-response, biochemical, absorbance readout, ultra-high-throughput screen actives (AID 540297); assay type: functional
T3 sequence (Q9GZU7 whole entry): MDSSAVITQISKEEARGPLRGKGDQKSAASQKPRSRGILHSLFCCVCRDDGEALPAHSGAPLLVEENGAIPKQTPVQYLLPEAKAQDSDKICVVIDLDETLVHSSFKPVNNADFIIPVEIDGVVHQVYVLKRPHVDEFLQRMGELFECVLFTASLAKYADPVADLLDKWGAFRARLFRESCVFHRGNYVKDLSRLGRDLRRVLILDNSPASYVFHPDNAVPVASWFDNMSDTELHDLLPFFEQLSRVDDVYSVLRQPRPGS

[6] = target: DNA dC->dU-editing enzyme APOBEC-3G (Homo sapiens, UniProt Q9HC16); assay type: functional;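 also: Dose-response counterscreen measuring inhibition of APOBEC3G DNA deaminase activity, run while confirming APOBEC3A inhibitors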
[7] = A549 cell cytotoxicity, dose response, cytotoxicity control, plate reader, cherry-pick, antagonist series (AID 743412); assay type: functional, cell-based
[8] = toxicity toward HepG2 liver cells – cell-based, plate reader, cherry-pick, antagonist series, cytotoxicity control, dose response (AID 743416); assay type: functional
[9] = viability loss in HEK293 cells – cell-based, plate reader, cherry-picked samples, cytotoxicity control, dose response (AID 743446); assay type: functional
[10] = blockade of melanocortin 4 receptor signaling – cell-based, plate reader, cherry pick, counter-screen for LGR2 antagonist project, dose response (AID 743444); assay type: functional;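 also: transfected HEK 293 cells stimulated with alpha-MSH peptide; potency of inhibitors of the alpha-MSH evoked signal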
Cytochrome P450 3A4 [11] = target: T4, Cytochrome P450 3A4 (Homo sapiens, UniProt P08684); settings: Potency
[12] = P. falciparum Dd2 growth inhibitors, dose response, SYBR Green, cherry-picked samples (AID 1159567); assay type: functional, cell-based
cells = assay type: functional
[13] = blockers of bursicon-stimulated LGR2 cAMP reporter – cell-based, HEK293, CRE-luciferase reporter, cherry pick, set 2, dose response (AID 743343); assay type: functional;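 also: transfected cells were stimulated with diluted bursicon conditioned medium after compound addition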
[14] = target: T5, Heat shock factor protein 1 (Mus musculus, UniProt P38532); assay: enhancement of HSF1-driven luciferase signal – cell-based, NIH3T3, luminescence, dose retest, confirmation (AID 435004); assay type: functional;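 also: stress induced by proteasome inhibitor MG132 added 30 min after compound; luciferase reporter driven by HSF1 response element in NIH3T3 cells; actives raise luminescence as potentiators of the MG132 stress response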
T5 sequence (P38532 whole entry): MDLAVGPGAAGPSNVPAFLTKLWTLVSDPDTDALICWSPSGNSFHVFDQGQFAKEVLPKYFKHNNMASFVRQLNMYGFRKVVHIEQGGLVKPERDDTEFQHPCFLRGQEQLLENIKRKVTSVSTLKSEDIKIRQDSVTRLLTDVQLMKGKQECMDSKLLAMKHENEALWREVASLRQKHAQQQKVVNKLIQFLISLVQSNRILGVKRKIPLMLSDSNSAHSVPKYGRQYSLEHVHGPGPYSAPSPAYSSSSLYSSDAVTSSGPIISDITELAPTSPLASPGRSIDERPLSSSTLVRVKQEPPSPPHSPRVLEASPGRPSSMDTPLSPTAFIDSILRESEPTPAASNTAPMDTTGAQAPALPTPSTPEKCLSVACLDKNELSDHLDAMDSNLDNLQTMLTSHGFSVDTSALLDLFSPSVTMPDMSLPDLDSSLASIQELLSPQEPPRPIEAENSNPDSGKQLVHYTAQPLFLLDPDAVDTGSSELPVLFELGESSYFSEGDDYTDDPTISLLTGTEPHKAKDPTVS

[15] = microbe, parasite or virus in culture; assay type: functional; settings: Mycobacterium tuberculosis
[16] = target: T5, Heat shock factor protein 1; assay: decrease of HSF1-responsive luciferase luminescence – cell-based, NIH3T3, dose retest, confirmation (AID 2382); assay type: functional;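 also: NIH3T3 fibroblasts with HSF1-driven luciferase reporter stressed by proteasome inhibitor MG132; luminescence from HSF1-driven luciferase expression after 8 hours of MG132 stress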
[17] = blockers of HIV-1 ZM109 envelope-driven cell-cell fusion – HeLa effector, CEM target cells, luciferase, cherry-pick, dose response (AID 652058); assay type: functional, cell-based;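 also: luciferase signal from HIV-1 Env mediated cell-cell fusion of effector and target cells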
Large T antigen = Large T antigen (Simian virus 40, UniProt P03070); assay type: functional, Betapolyomavirus macacae;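 also: Confirmatory-stage PubChem screen for compounds that inhibit SV40 T antigen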
Cytochrome P450 3A4 [18] = target: T4, Cytochrome P450 3A4

Chain of DNA dC->dU-editing enzyme APOBEC-3G (Q9HC16 whole entry): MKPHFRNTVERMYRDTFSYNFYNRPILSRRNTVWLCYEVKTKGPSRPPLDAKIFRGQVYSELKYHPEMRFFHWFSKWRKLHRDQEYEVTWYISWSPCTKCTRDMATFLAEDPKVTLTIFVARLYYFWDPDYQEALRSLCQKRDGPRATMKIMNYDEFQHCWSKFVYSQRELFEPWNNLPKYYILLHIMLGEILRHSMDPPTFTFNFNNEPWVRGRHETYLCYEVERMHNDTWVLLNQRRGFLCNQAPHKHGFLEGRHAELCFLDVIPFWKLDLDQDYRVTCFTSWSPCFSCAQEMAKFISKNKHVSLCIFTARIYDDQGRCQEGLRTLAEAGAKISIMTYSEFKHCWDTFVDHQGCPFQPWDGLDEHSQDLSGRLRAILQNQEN
Chain of DNA dC->dU-editing enzyme APOBEC-3A (P31941 whole entry, the tested form may be a part): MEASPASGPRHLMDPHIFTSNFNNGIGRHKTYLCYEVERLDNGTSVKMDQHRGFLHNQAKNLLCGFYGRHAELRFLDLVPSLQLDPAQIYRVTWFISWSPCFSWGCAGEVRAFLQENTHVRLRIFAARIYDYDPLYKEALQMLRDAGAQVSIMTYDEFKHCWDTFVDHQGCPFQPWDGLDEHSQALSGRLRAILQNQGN
Chain of FAD-linked sulfhydryl oxidase ALR (P55789 whole entry): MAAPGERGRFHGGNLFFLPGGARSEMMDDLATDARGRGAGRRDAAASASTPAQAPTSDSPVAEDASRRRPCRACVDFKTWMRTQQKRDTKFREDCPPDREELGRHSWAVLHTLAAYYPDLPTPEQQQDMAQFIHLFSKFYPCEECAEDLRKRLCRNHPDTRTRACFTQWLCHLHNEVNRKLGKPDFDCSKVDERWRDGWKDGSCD
T4 sequence (P08684 whole entry): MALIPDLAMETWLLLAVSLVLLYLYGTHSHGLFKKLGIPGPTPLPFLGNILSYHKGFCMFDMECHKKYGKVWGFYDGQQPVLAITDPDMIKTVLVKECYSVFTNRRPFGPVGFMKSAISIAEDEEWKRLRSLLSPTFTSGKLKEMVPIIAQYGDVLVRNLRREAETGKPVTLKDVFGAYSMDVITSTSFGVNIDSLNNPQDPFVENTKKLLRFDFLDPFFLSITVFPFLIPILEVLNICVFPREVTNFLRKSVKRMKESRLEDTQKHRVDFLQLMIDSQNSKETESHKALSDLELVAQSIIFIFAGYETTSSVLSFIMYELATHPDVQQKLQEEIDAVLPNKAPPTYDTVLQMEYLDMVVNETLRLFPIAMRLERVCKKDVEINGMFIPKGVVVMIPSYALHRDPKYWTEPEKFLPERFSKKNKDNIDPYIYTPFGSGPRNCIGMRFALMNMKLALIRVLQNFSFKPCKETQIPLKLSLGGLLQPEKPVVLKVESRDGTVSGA
Chain of Large T antigen (P03070 whole entry): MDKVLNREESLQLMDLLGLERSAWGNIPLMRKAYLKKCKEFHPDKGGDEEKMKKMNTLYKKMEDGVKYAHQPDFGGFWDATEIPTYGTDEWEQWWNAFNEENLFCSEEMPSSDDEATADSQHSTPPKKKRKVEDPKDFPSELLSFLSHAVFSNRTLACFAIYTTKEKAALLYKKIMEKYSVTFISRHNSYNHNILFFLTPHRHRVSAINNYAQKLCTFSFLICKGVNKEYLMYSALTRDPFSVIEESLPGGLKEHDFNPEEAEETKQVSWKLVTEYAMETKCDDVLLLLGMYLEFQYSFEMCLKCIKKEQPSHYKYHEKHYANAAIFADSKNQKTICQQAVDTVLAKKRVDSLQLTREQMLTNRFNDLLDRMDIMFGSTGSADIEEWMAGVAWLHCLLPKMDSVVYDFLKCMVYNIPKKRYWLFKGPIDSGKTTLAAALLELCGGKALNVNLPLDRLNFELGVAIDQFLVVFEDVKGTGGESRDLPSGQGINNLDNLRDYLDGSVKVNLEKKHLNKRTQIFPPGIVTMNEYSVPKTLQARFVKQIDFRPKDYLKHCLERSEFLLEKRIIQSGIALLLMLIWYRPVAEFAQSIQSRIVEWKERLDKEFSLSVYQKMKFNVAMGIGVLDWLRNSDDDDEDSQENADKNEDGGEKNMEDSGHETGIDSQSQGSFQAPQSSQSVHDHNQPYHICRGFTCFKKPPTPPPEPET

## CCCCCCSc1cc(-c2nc3cc(C)ccn3c2NC2CCCCC2)ccc1OC
[1]
  IC50: > 20 µM (inactive)

## NS(=O)(=O)c1ccc(CCNCc2ccccc2OCc2ccc(F)cc2)cc1
[2]
  EC50: 3.35 µM (active)

## COc1ccccc1N1CCN(S(=O)(=O)c2ccccc2)CC1
[3]
  AC50: 7.31 µM (active)

## Cc1ccc2[nH]c(O)c(/N=N/C(=N)S)c2c1
[1]
  IC50: > 20 µM (inactive)

## N=C1/C(=C/c2ccco2)C(=O)N=C2SC(CC(=O)N3CCCC3)=NN12
[4]
  IC50: 18.5 µM (active)
[5]
  IC50: 7.01 µM (active)
[6]
  IC50: 37.6 µM (active)

## COc1ccc(S(=O)(=O)Nc2ccc3c(c2)C(=O)N([C@@H](C)CO)C[C@H](C)[C@@H](CN(C)C(=O)Nc2cccc4ccccc24)OCCCC[C@H](C)O3)cc1
[7]
  AC50: 22.8 µM (active)
[8]
  AC50: > 52 µM (inactive)
[9]
  AC50: > 52 µM (inactive)
[10]
  AC50: 8.72 µM (active)

## O=C1OC(C2=CCCCC2)=NC12CC2
Cytochrome P450 3A4 [11]
  AC50: 5.01 µM (inconclusive)

## CO[C@@H]1CN(C)C(=O)c2ccc(NC(=O)Nc3cccc(F)c3)cc2OC[C@H](C)NC[C@H]1C
[12]
  AC50: 7.62 µM (active)

## Cc1cc(C)cc(NC(=O)CCc2ccc(C)o2)c1
cells
  IC50: 36.7 µM (active)

## O=C(Nc1ccc(Oc2ccccc2)nc1)C1CCN(Cc2ccccc2)CC1
[2]
  EC50: 2.37 µM (active)

## CC1Cc2ccccc2N1C(=O)COC(=O)c1ccc(Cl)nc1 (stereo not given)
cells
  IC50: 39.8 µM (active)

## C[C@@]12CCC(O)C[C@H]1CCC1C2CC[C@]2(C)C(=O)CCC12 (stereo not given in full)
Cytochrome P450 3A4 [11]
  AC50: 15.8 µM (inconclusive)

## O=C(Nc1nc2ccccc2s1)c1ccc2c(c1)OCO2
[7]
  AC50: > 52 µM (inactive)
[8]
  AC50: > 52 µM (inactive)
[9]
  AC50: 31.5 µM (active)
[10]
  AC50: 4.59 µM (active)
[13]
  AC50: 3.49 µM (active)

## COc1cc(OC)c2c(=O)c(-c3ccccc3)c(C)oc2c1OC [2-METHYL-5,7,8-TRIMETHOXYISOFLAVONE]
Cytochrome P450 3A4 [11]
  AC50: 20 µM (inconclusive)

## CC(C)(C)[S@+]([O-])N1Cc2cc(C(=O)NC3CCC3)nc(-c3cccc(Br)c3)c2[C@@H]1CCO
[12]
  AC50: 7.47 µM (active)

## COC(=O)c1ccc(CSc2nc3ccccc3c(=O)n2CC(C)C)o1
[14]
  EC50: > 260 µM (inactive)
[2]
  EC50: 3.35 µM (active)

## CC1=NN(c2ccccc2)C(=O)C1C(=O)c1ccccc1 (stereo not given)
[15]
  CC50: > 40 µM (active)
cells
  IC50: 42.1 µM (active)

## CNC(=O)COc1ccc2oc3c(c2c1)CCCC3
[2]
  EC50: 1.33 µM (active)

## CCCC[N+]12CCC(CC1)C(C(O)(c1ccccc1)c1ccccc1)C2 (stereo not given)
[16]
  EC50: > 195 µM (not active)
[4]
  IC50: 2.74 µM (active)
[6]
  IC50: 2.79 µM (active)

## CC(C)NC(=O)N(C)C[C@@H]1Oc2ccc(NC(=O)C3CC3)cc2CC(=O)N([C@@H](C)CO)C[C@@H]1C
[17]
  AC50: 64.5 µM (active)

## N#CC1=C(S)N(c2ccccc2)C(c2ccc(-c3ccc(Cl)c(Cl)c3)o2)NC1=O (stereo not given)
Large T antigen
  IC50: 62.7 µM (active)

## CC(=O)Nc1ccc(-c2ccccc2)s1
[4]
  IC50: 5.3 µM (active)
[6]
  IC50: 5.05 µM (active)

## Cc1c(C)c2ccc(OCC(=O)Nc3nccs3)cc2oc1=O
[9]
  AC50: > 52 µM (inactive)
[10]
  AC50: 4.38 µM (active)
[13]
  AC50: 4.84 µM (active)

## COc1ccc(-c2ccccc2[C@H]2[C@@H](CO)N(C(=O)C3CCOCC3)[C@H]2C#N)cc1
[12]
  AC50: > 39 µM (inactive)

## CCOC(=O)c1cc(C#N)c(N2CCCCC2)nc1-c1ccccc1
[2]
  EC50: 3.76 µM (active)

## C/C(CC(=O)Nc1ccc(N(C)C)cc1)=N\NC(=O)c1cnccn1
Large T antigen
  IC50: 17.5 µM (active)

## Nc1ccc(C(=O)Nc2cccc(N)c2)cc1
[3]
  AC50: 1.96 µM (active)

## O=C(Nc1nnc(-c2cc(Cl)ccc2Cl)o1)C1=COCCO1
cells
  IC50: 11.6 µM (active)

## COc1cccc2c1cc([N+](=O)[O-])c1c(C(=O)O)cc3c(c12)OCO3 [ARISTOLOCHIC ACID]
Cytochrome P450 3A4 [11]
  AC50: 10 µM (inconclusive) and 63.1 nM (inconclusive)

## Cc1cc(Cl)ccc1OC(C)C(=O)Nc1ccc([N+](=O)[O-])cn1 (stereo not given)
cells
  IC50: 38 µM (active)

## COc1ccc(Nc2c3c(nc4ccccc24)CCCC3)cc1OC
[3]
  AC50: 0.511 µM (active)

## CN(C)c1ccc(NC(=O)c2cccc(N3C(=O)CCC3=O)c2)cc1
Large T antigen
  IC50: 9.21 µM (active)

## COC(=O)CNC(=O)C1(CC(C)C)C=CCN1C(=O)c1ccccc1 (stereo not given)
Cytochrome P450 3A4 [11]
  AC50: 20 µM (inconclusive)

## COc1cc(/C=C/c2cc[n+](C)cc2)ccc1OCC(=O)Nc1ccccc1
[4]
  IC50: 2.93 µM (active)
[5]
  IC50: 5.84 µM (active)
[6]
  IC50: 2.02 µM (active)

## CCCCNc1nc(-c2ccccc2)c(C(=O)OCC)cc1C#N
Cytochrome P450 3A4 [18]
  AC50: 28.2 µM (inconclusive)
[2]
  EC50: 1.19 µM (active)

## CCC1=C2CC[C@H]3C(=O)N(CC)C(=O)[C@H]3[C@H]2[C@@]2(C)/C(=N/CC(=O)OC)OC(=O)N2C1=O
Cytochrome P450 3A4 [11]
  AC50: 15.8 µM (inconclusive)
